The record followed here is ChEMBL document CHEMBL2086339 (J Med Chem, 2012).

Values after ≈ are worked out from the molar mass of the structure shown.

A short description of data set [1]: Cmax in Long Evans rat at 20 mg/kg, po. The class given is ADME, organism-based. Details: dose 20 mg/kg, route oral. The conditions noted are these: in vivo.
A short description of data set [2]: Intrinsic clearance in rat liver microsomes assessed per mg of protein at 1 uM by UPLC/TOF-MS analysis. Format: ADME, Microsome. The settings on record: read-out: CLH. For orientation: Liver microsomes are a subcellular fraction often used to study metabolism.
Data set [3] in a line: Ratio of drug level in brain to plasma in Long Evans rat at 10 mg/kg, po. Format: ADME, organism-based. Further details: dose 10 mg/kg, route oral. The conditions noted are these: read-out: BPR.
Data set [4] can be described thus: Tmax in Long Evans rat at 20 mg/kg, po. The class given is ADME, organism-based. Details: dose 20 mg/kg, route oral. The settings on record: in vivo.
Data set [5] can be described thus: Oral bioavailability in Long Evans rat at 20 mg/kg. The settings on record: in vivo. The class given is ADME, organism-based.
Data set [6] in a line: AUC (0 to infinity) in Long Evans rat at 20 mg/kg, po. Format: ADME, organism-based. Details: time infinity, dose 20 mg/kg, route oral. The settings on record: plasma.
A short description of data set [7]: Cmax in Long Evans rat brain at 10 mg/kg, po. The class given is ADME, organism-based. Details: dose 10 mg/kg, route oral.
The nature of data set [8]: Solubility of the compound at pseudo-thermodynamic equilibrium after 24 hrs by UPLC/UV/TOF-MS analysis at pH 7.4. Format: physicochemical. The conditions noted are these: buffer.
The nature of data set [9]: Metabolic stability in rat plasma assessed as compound remaining at 250 uM after 3 hrs by LC-ESI-MS-MS analysis. The class given is ADME, cell-free. The conditions noted are these: read-out: Stability.

On to `COc1ccc(-c2cc(NC(=O)CCCCN3CCCN(C(C)=O)CC3)[nH]n2)cc1`, for which the maximum concentration (Cmax) in [1] amounted to 0.18 µM; in data set [7], 3.7 ng/g. Moreover, in data set [2], the microsomal CLint at 1 µM worked out at 13 µL/min/mg. Besides, the Kp in [3] is 0.38. Moreover, the Tmax in [4] turned out to be 49.8 min. The compound further showed a bioavailability in data set [5] of 12%. In data set [6], this compound displayed an AUC(0-inf) of 1370 nM·h. For the same compound, the solubility (thermodynamic) at 24 h in data set [8] was 170 µM (≈ 70.3 µg/mL). Besides, the remaining at 3 h, 250 µM in data set [9] was determined as 55%.
With `COc1ccc(-c2n[nH]c(NC(=O)CCCCN3CCCN(C(C)=O)CC3)c2C)cc1`, the thermodynamic solubility at 24 h in data set [8] is 151 µM (≈ 64.6 µg/mL).
Take `COc1ccc(-c2cc(NC(=O)C(C)CCCN3CCCN(C(C)=O)CC3)[nH]n2)cc1` (stereo unspecified): the thermodynamic solubility at 24 h in data set [8] stood at 128 µM (≈ 54.7 µg/mL). For the same compound, the remaining at 3 h, 250 µM in data set [9] was > 99%.
For the compound `COc1ccc(-c2c[nH]c(NC(=O)CCCCN3CCCN(C(C)=O)CC3)n2)cc1`, the thermodynamic solubility at 24 h in data set [8] was 193 µM (≈ 79.8 µg/mL).
Same read-out and setting: for `O=C(CCCCN1CCCCC1)Nc1cc(-c2ccc(Cl)cc2)n[nH]1` the value was 182 µM (≈ 65.7 µg/mL); for `COc1ccc(-c2cc(NC(=O)CCCCN3CCCCC3)[nH]n2)cc1`, 219 µM (≈ 78.1 µg/mL); for `COc1cccc(-c2cc(NC(=O)CCCCN3CCCCC3)[nH]n2)c1`, 213 µM (≈ 75.9 µg/mL).
Still for that read-out and setting: for `COc1ccccc1-c1cc(NC(=O)CCCCN2CCCCC2)[nH]n1` the value was 178 µM (≈ 63.5 µg/mL).
The same measure, in the same setting: for `COc1ccc(-c2n[nH]c(NC(=O)CCCCN3CCCCC3)c2C)cc1` the value was 188 µM (≈ 69.7 µg/mL); for `O=C(CCCCN1CCCCC1)Nc1cc(-c2ccc(F)cc2)n[nH]1`, 237 µM (≈ 81.6 µg/mL); for `O=C(CCCCN1CCCCC1)Nc1cc(-c2ccc(Br)cc2)n[nH]1`, 144 µM (≈ 58.4 µg/mL).
Take `O=C(CCCCN1CCCCC1)Nc1cc(-c2ccncc2)n[nH]1`: in [8], the thermodynamic solubility at 24 h was found to be 226 µM (≈ 74 µg/mL).
In [8], `O=C(CCCCN1CCCCC1)Nc1cc(-c2ccc(C(F)(F)F)cc2)n[nH]1` yielded a solubility (thermodynamic) at 24 h of 157 µM (≈ 61.9 µg/mL). This solubility thermodynamic at 24 h and that of the compound before are within 1.5-fold of each other.
On the same count and under the same terms, for `O=C(CCCCN1CCCCC1)Nc1cc(-c2ccco2)n[nH]1` the value was 250 µM (≈ 79.1 µg/mL).
In data set [8], `COc1ccc(-c2cc(NC(=O)CCCCN3CCC(C)CC3)n[nH]2)cc1` had a solubility (thermodynamic) at 24 h of 198 µM (≈ 73.4 µg/mL).
On the same count and under the same terms, for `COc1ccc(-c2cc(NC(=O)CCCCN3CCOCC3)[nH]n2)cc1` the value was 176 µM (≈ 63.1 µg/mL); for `COc1ccc(-c2cc(NC(=O)CCCCN3CCNC(=O)C3)[nH]n2)cc1`, 92 µM (≈ 34.2 µg/mL); for `COc1ccc(-c2cc(NC(=O)CCCCN3CCC(C(N)=O)CC3)[nH]n2)cc1`, 184 µM (≈ 73.5 µg/mL).
Same read-out and setting: under `COc1ccc(-c2cc(NC(=O)CCCCN3CCCCCC3)n[nH]2)cc1` stands 133 µM (≈ 49.3 µg/mL); under `COc1ccc(-c2cc(NC(=O)CCCCN3CCCOCC3)[nH]n2)cc1`, 176 µM (≈ 65.6 µg/mL); under `COc1ccc(-c2cc(NC(=O)CCCCN3CCCNCC3)[nH]n2)cc1`, 153 µM (≈ 56.8 µg/mL).
`COc1ccc(-c2cc(NC(=O)CCCCN3CCNC(=O)CC3)[nH]n2)cc1` returned a thermodynamic solubility at 24 h in data set [8] of 117 µM (≈ 45.1 µg/mL).

As a reminder, the Cmax is the maximum level reached in the sampled fluid or tissue. By Tmax is commonly meant the time from dosing to the highest level. By bioavailability is commonly meant dose-corrected exposure relative to a reference, in per cent. A higher bioavailability goes with much systemic uptake. In general, AUC(0-inf) refers to the area under the concentration-time curve extrapolated to infinity. Read a high AUC(0-inf) as high exposure. By solubility (thermodynamic) is commonly meant solubility found after equilibrating the solid with the medium.
